In brackets after ≈: the same amount, converted by molar mass.
Assays:
[1] = system: Alcaligenes faecalis; assay: Antimicrobial activity, serial dilution method; type: cell-based; details: IFO 13111; Trypticase-soy agar
Protocol: (§1) The antimicrobial activities of Antibiotics C-14919 E-1 and E-2 were assayed by the serial dilution method using Trypticase-soy agar (BBL), glucose nutrient agar and glycerol nutrient agar as test media (Table 5). In addition, the activities against Tetrahymena pyriformis W were determined by the serial dilution method using the assay medium [Proteose-peptone 20 g, yeast extract 1 g, glucose 2 g, distilled water 1000 ml, 1 M-phosphate buffer (pH 7.0) 10 ml].

[2] = system: Bacillus brevis; assay: Antimicrobial activity, serial dilution method; type: cell-based; details: IFO 3331; Trypticase-soy agar
Protocol: as §1

[3] = system: Bacillus cereus; assay: Antimicrobial activity, serial dilution method; type: cell-based; details: IFO 3514; Trypticase-soy agar
Protocol: as §1

[4] = system: Bacillus megaterium; assay: Antimicrobial activity, serial dilution method; type: cell-based; details: IFO 12108; Trypticase-soy agar
Protocol: as §1

[5] = system: Bacillus pumilus; assay: Antimicrobial activity, serial dilution method; type: cell-based; details: IFO 3813; Trypticase-soy agar
Protocol: as §1

[6] = system: Bacillus subtilis 6633; assay: Antimicrobial activity, serial dilution method; type: cell-based; details: IFO 3134; Trypticase-soy agar
Protocol: as §1

[7] = system: Bacillus subtilis PCI219; assay: Antimicrobial activity, serial dilution method; type: cell-based; details: IFO 3513; Trypticase-soy agar
Protocol: as §1

[8] = system: Escherichia coli K-12; assay: Antimicrobial activity, serial dilution method; type: cell-based; details: IFO 3301; Trypticase-soy agar
Protocol: as §1

[9] = system: Micrococcus flavus; assay: Antimicrobial activity, serial dilution method; type: cell-based; details: IFO 3242; Trypticase-soy agar
Protocol: as §1

[10] = system: Proteus vulgaris; assay: Antimicrobial activity, serial dilution method; type: cell-based; details: IFO 3045; Trypticase-soy agar
Protocol: as §1

[11] = system: Pseudomonas aeruginosa; assay: Antimicrobial activity, serial dilution method; type: cell-based; details: IFO 3080; Trypticase-soy agar
Protocol: as §1

[12] = system: Salmonella typhimurium; assay: Antimicrobial activity, serial dilution method; type: cell-based; details: IFO 12529; Trypticase-soy agar
Protocol: as §1

[13] = system: Sarcina lutea; assay: Antimicrobial activity, serial dilution method; type: cell-based; details: IFO 3232; Trypticase-soy agar
Protocol: as §1

[14] = system: Serratia marcescens; assay: Antimicrobial activity, serial dilution method; type: cell-based; details: IFO 3046; Trypticase-soy agar
Protocol: as §1

[15] = system: Staphylococcus aureus 209P; assay: Antimicrobial activity, serial dilution method; type: cell-based; details: IFO 12732; Trypticase-soy agar
Protocol: as §1

[16] = system: Candida albicans; assay: Antimicrobial activity, serial dilution method (Trypticase-soy agar); type: cell-based; details: IFO 0583
Protocol: as §1

[17] = system: Aspergillus niger; assay: Antimicrobial activity, serial dilution method; type: cell-based; details: IFO 4066; Glucose nutrient agar
Protocol: as §1
(§2) **Glucose nutrient agar

[18] = system: Candida krusei; assay: Antimicrobial activity, serial dilution method; type: cell-based; details: IFO 1395; Glucose nutrient agar
Protocol: as §1, §2

[19] = system: Candida pseudotropicalis; assay: Antimicrobial activity, serial dilution method; type: cell-based; details: IFO 0617; Glucose nutrient agar
Protocol: as §1, §2

[20] = system: Candida tropicalis; assay: Antimicrobial activity, serial dilution method; type: cell-based; details: IFO 1400; Glucose nutrient agar
Protocol: as §1, §2

[21] = system: Candida utilis; assay: Antimicrobial activity, serial dilution method; type: cell-based; details: IFO 0619; Glucose nutrient agar
Protocol: as §1, §2

[22] = system: Candida; assay: Antimicrobial activity, serial dilution method; type: cell-based; details: IFO 1396; Glucose nutrient agar
Protocol: as §1, §2

[23] = system: Cryptococcus neoformans; assay: Antimicrobial activity, serial dilution method; type: cell-based; details: IFO 0410; Glucose nutrient agar
Protocol: as §1, §2

[24] = system: Hormodendrum pedrosoi; assay: Antimicrobial activity, serial dilution method; type: cell-based; details: IFO 6071; Glucose nutrient agar
Protocol: as §1, §2

[25] = system: Microsporum canis; assay: Antimicrobial activity, serial dilution method; type: cell-based; details: IFO 7863; Glucose nutrient agar
Protocol: as §1, §2

[26] = system: Microsporum cookei; assay: Antimicrobial activity, serial dilution method; type: cell-based; details: IFO 8303; Glucose nutrient agar
Protocol: as §1, §2

[27] = system: Penicillium chrysogenum; assay: Antimicrobial activity, serial dilution method; type: cell-based; details: IFO 4626; Glucose nutrient agar
Protocol: as §1, §2

[28] = system: Saccharomyces cerevisiae; assay: Antimicrobial activity, serial dilution method; type: cell-based; details: IFO 0209; Glucose nutrient agar
Protocol: as §1, §2

[29] = system: Trychophyton rubrum; assay: Antimicrobial activity, serial dilution method; type: cell-based; details: IFO 5467; Glucose nutrient agar
Protocol: as §1, §2

[30] = system: Candida albicans; assay: Antimicrobial activity, serial dilution method (Glucose nutrient agar); type: cell-based; details: IFO 0583
Protocol: as §1, §2

[31] = system: Mycobacterium avium; assay: Antimicrobial activity, serial dilution method; type: cell-based; details: Glycerol nutrient agar
Protocol: as §1
(§3) ***Glycerol nutrient agar

[32] = system: Mycobacterium phlei; assay: Antimicrobial activity, serial dilution method; type: cell-based; details: Glycerol nutrient agar
Protocol: as §1, §3

[33] = system: Tetrahymena pyriformis W; assay: Activity against Tetrahymena pyriformis W, serial dilution method; type: cell-based; details: Proteose-peptone solution, pH 7.0
Protocol: as §1
****Proteose-peptone solution

[34] = Acute toxicity test in mice; type: in vivo; details: intraperitoneal administration
Description: The assumed LD50 as determined by intraperitoneal administration of C-14919 E-1 and E-2 in an acute toxicity test using mice as test animals are as follows.

[35] = system: P388 leukemia; assay: Therapeutic activity against P388 leukemia in mice; type: in vivo; details: for antitumour activity in terms of the extension of life spans: 5 mg/kg/day, intraperitoneally, consecutive days, P388 1×10^6 cells/animal i.p. transplanted; for life-extending effect upon tumour-bearing mammals: e.g. mouse
Protocol: The therapeutic activity (intraperitoneally administered for a consecutive days) of C-14919 E-1 and E-2 against P388 leukemia in mice (1×10^6 cells/animal, mouse, itraperitoneally transplanted) was investigated. The antitumour activity in terms of the extension of life spans was 144% at the dose level of 5 mg/kg/day.

[36] = Solubility; type: physicochemical
[37] = Acid, neutral or basic nature / lipophilicity; type: physicochemical
[38] = Stability in solution; type: physicochemical
[39] = system: Gram-positive bacteria, fungi and yeasts; assay: Antimicrobial spectrum (summary of Table 5); type: cell-based; details: antimicrobial spectrum of Table 5
Protocol: as §1

[40] = Room temp., basic solution/conditions
[41] = Room temp., neutral and weakly acidic solutions/conditions

## COC1C[C@H](C)[C@@H](OC)C2=CC(=O)C=C(NC(=O)/C(C)=C/C=C\[C@H](C)C(OC(N)=O)/C(C)=C/[C@@H](C)[C@@H]1OC)C2=O (some centres unmarked) [C-14919 E-1]
[1]
  MIC: > 100 µg/mL
[2]
  MIC: 50 µg/mL (≈ 89.5 µM)
[3]
  MIC: > 100 µg/mL
[4]
  MIC: 50 µg/mL (≈ 89.5 µM)
[5]
  MIC: 50 µg/mL (≈ 89.5 µM)
[6]
  MIC: 50 µg/mL (≈ 89.5 µM)
[7]
  MIC: 100 µg/mL (≈ 179 µM)
[8]
  MIC: > 100 µg/mL
[9]
  MIC: 50 µg/mL (≈ 89.5 µM)
[10]
  MIC: > 100 µg/mL
[11]
  MIC: > 100 µg/mL
[12]
  MIC: > 100 µg/mL
[13]
  MIC: 50 µg/mL (≈ 89.5 µM)
[14]
  MIC: > 100 µg/mL
[15]
  MIC: > 100 µg/mL
[16]
  MIC: 25 µg/mL (≈ 44.7 µM)
[17]
  MIC: 100 µg/mL (≈ 179 µM)
[18]
  MIC: > 100 µg/mL
[19]
  MIC: 100 µg/mL (≈ 179 µM)
[20]
  MIC: > 100 µg/mL
[21]
  MIC: > 100 µg/mL
[22]
  MIC: 50 µg/mL (≈ 89.5 µM)
[23]
  MIC: > 100 µg/mL
[24]
  MIC: > 100 µg/mL
[25]
  MIC: > 100 µg/mL
[26]
  MIC: > 100 µg/mL
[27]
  MIC: 50 µg/mL (≈ 89.5 µM)
[28]
  MIC: 100 µg/mL (≈ 179 µM)
[29]
  MIC: > 100 µg/mL
[30]
  MIC: 50 µg/mL (≈ 89.5 µM)
[31]
  MIC: > 100 µg/mL
[32]
  MIC: > 100 µg/mL
[33]
  MIC: 10 µg/mL (≈ 17.9 µM)
[34]
  assumed LD50: 50 to 100 mg/kg
[35]
  antitumour activity in terms of the extension of life spans: 144%
  life-extending effect upon tumour-bearing mammals: life-extending effect
[36]
  Solubility in acetone: Soluble
  Solubility in benzene: Sparingly soluble
  Solubility in butanol: Soluble
  Solubility in chloroform: Soluble
  Solubility in diethyl ether: Sparingly soluble
  Solubility in dimethylsulfoxide: Readily soluble
  Solubility in ethanol: Soluble
  Solubility in ethyl acetate: Soluble
  Solubility in hexane: Insoluble
  Solubility in methanol: Soluble
  Solubility in methyl isobutyl ketone: Soluble
  Solubility in petroleum ether: Insoluble
  Solubility in water: Insoluble
[37]
  Acid, neutral or basic: a neutral substance
  lipophilicity: lipophyl
[38]; 80° C., 1 hr.
  Stability: unstable
[38]; [40]
  Stability: Unstable
[38]; [41]
  Stability: Stable
[39]
  antimicrobial activity: display activity against Gram-positive bacteria, fungi and yeasts

## COC1CC(C)C(OC)c2cc(O)cc(c2O)NC(=O)/C(C)=C/C=C\C(C)C(OC(N)=O)/C(C)=C/C(C)C1OC (centres unmarked) [C-14919 E-2]
[1]
  MIC: 100 µg/mL (≈ 178 µM)
[2]
  MIC: 50 µg/mL (≈ 89.2 µM)
[3]
  MIC: > 100 µg/mL
[4]
  MIC: 50 µg/mL (≈ 89.2 µM)
[5]
  MIC: 100 µg/mL (≈ 178 µM)
[6]
  MIC: 100 µg/mL (≈ 178 µM)
[7]
  MIC: > 100 µg/mL
[8]
  MIC: > 100 µg/mL
[9]
  MIC: 50 µg/mL (≈ 89.2 µM)
[10]
  MIC: > 100 µg/mL
[11]
  MIC: > 100 µg/mL
[12]
  MIC: > 100 µg/mL
[13]
  MIC: 50 µg/mL (≈ 89.2 µM)
[14]
  MIC: > 100 µg/mL
[15]
  MIC: > 100 µg/mL
[16]
  MIC: 6.25 µg/mL (≈ 11.1 µM)
[17]
  MIC: 100 µg/mL (≈ 178 µM)
[18]
  MIC: > 100 µg/mL
[19]
  MIC: 100 µg/mL (≈ 178 µM)
[20]
  MIC: > 100 µg/mL
[21]
  MIC: > 100 µg/mL
[22]
  MIC: 25 µg/mL (≈ 44.6 µM)
[23]
  MIC: > 100 µg/mL
[24]
  MIC: > 100 µg/mL
[25]
  MIC: > 100 µg/mL
[26]
  MIC: > 100 µg/mL
[27]
  MIC: 25 µg/mL (≈ 44.6 µM)
[28]
  MIC: 100 µg/mL (≈ 178 µM)
[29]
  MIC: > 100 µg/mL
[30]
  MIC: 25 µg/mL (≈ 44.6 µM)
[31]
  MIC: > 100 µg/mL
[32]
  MIC: > 100 µg/mL
[33]
  MIC: 10 µg/mL (≈ 17.8 µM)
[34]
  assumed LD50: 25 to 100 mg/kg
[35]
  antitumour activity in terms of the extension of life spans: 144%
  life-extending effect upon tumour-bearing mammals: life-extending effect
[36]
  Solubility in acetone: Soluble
  Solubility in benzene: Sparingly soluble
  Solubility in butanol: Soluble
  Solubility in chloroform: Sparingly soluble
  Solubility in diethyl ether: Sparingly soluble
  Solubility in dimethylsulfoxide: Readily soluble
  Solubility in ethanol: Soluble
  Solubility in ethyl acetate: Soluble
  Solubility in hexane: Insoluble
  Solubility in methanol: Soluble
  Solubility in methyl isobutyl ketone: Soluble
  Solubility in petroleum ether: Insoluble
  Solubility in water: Sparingly soluble
[37]
  Acid, neutral or basic: a neutral substance
  lipophilicity: lipophyl
[38]; 80° C., 1 hr.
  Stability: unstable
[38]; [40]
  Stability: Unstable
[38]; [41]
  Stability: Stable
[39]
  antimicrobial activity: display activity against Gram-positive bacteria, fungi and yeasts

— patent US4187292A, “Antibiotics produced from the microorganism nocardice” (Takeda Chemical Industries, Ltd., priority 1977, dated 1980)
